In patent US20240240150A1, “SPONTANEOUSLY BEATING CARDIAC ORGANOID CONSTRUCTS AND INTEGRATED BODY-ON-CHIP APPARATUS CONTAINING THE SAME” (Wake Forest University Health Sciences, priority 2015, published 2024):
Where two headings read alike, the source gives them in different places.

Legend:
[1] = test system: cardiac organoids
Protocol: To test the integrated response of the liver and cardiac system to epinephrine and propranolol combinations, the experimental groups described above were prepared and the same protocol (individual unit incubation prior to joining of modules) was followed. However, the incubation period was lengthened to overnight (18 hours). Both Group 1 and Group 2 were administered 0.1 uM propranolol. After the incubation period, the modules were joined and 0.5 uM epinephrine was be administered to both groups. Additionally, in parallel, a Group 3 condition was employed, which mirrored Group 2, but used a 2D hepatocyte culture (1-2 million cells/well) instead of the liver construct as a 2D comparison.

[2] = test system: cardiac organoids; assay: Cardiac organoid beating rate response to drugs (onboard camera / microscope); assay type: cell-based, human
Excerpt: Cardiac construct baseline function monitoring and beat rate response to drugs. […] First the cover of the webcam is disassembled to retrieve the CMOS sensor. The lens of the webcam is then detached from its initial location, flipped, and integrated back to the holder to convert it into a magnifying lens. A base was then constructed for the mini-microscope to fit onto the bottom of the bioreactors. The base consisted of a dual-layer structure of PMMA sheets (⅛″ Thick, 12″×12″, McMaster 8505K11) cut into the dimensions of the bioreactors using a laser cutter (VLS 2.30 Desktop Laser System, Universal Laser Systems). Using 4 sets of screw/bolts, the CMOS module was tightly clamped in between a pair of PMMA structures. Additional 4 sets of screw/bolts were further mounted at the corners of the structures to function as the focus knobs. Only very minor alteration to the bioreactor itself was needed, i.e., 4 extra holes were drilled on the lower PMMA board to fit the imager at the bottom. During culture of cardiac constructs, videos were captured to analyze cardiac organoid beating rates. Video files were analyzed using custom written MatLab code with a series of MatLab functions. The software created a reference frame, based on the first frame of the video, and compared pixels in each subsequent frame, determining which pixels represented movement over time. The moving pixels in each frame were then used to generate a black and white pixilated representation of beat behavior, allowing visualization of beat propagation, and generation a plot showing the number of moving pixels versus time, allowing determination of beating rates.

[3] = test system: cardiac organoids; settings: for increase in beating rate: 0.5 μM
Protocol: Integrated organoid system and integrated response to drugs. To evaluate how the combination of both organoid types together impact drug response, epinephrine and propranolol were tested independently and jointly. In the independent scenario, organoid platforms were prepared in two groups: Group 1 consisted of a set of organoids comprised only of cardiac, with “blank” liver modules. Group 2 consisted of both cardiac and liver. However, it should be noted that cardiac and liver constructs were kept separate for the incubation period, while the drug was administered to the liver construct or “blank” liver module, after which the modules were joined for 30 minutes prior to cardiac beating rate assessment. Baseline cardiac organoid beating rates were determined in each group prior to drug administration. Then, the drugs—either 0.1 μM propranolol or 0.5 μM epinephrine—were administered, allowed to incubate for 1 hour, after which the modules were joined, and data was collected.

[4] = test system: liver constructs (bioprinted liver organoids); assay: On-chip liver construct albumin secretion (Human Albumin ELISA); assay type: cell-based; settings: for albumin levels vs 0 mM control: administered after day 6
Protocol: (§1) Liver construct synthetic functionality, response to acetaminophen insult, and intervention with N-acetyl-L-cysteine. To assess the response of the liver organoid system to toxic drug insult, acetaminophen was employed. Liver organoids were cultured in microreactors as described before for 14 days. Media samples were collected on days 3, 6, 10, and 14. After media collection on day 6, 1 set of organoids continued with normal media, 1 set of organoids were treated with 1 mM APAP, and 1 set of organoids were treated with 10 mM APAP. To assess the effectiveness of a countermeasure treatment to be used in the liver organoid system, N-acetyl-L-cysteine was explored as a clinically relevant treatment against APAP-induced toxicity. This final set of organoids was treated with 10 mM APAP and 20 mM N-acetyl-L-cysteine. During media changes, groups receiving the drug treatment received fresh HCM also containing the appropriate drug concentration.
(§2) For assessment of liver organoid albumin and urea secretion under baseline conditions as well as during exposure to APAP, collected media aliquots were analyzed using a Human Albumin ELISA assay (Alpha Diagnostic International) and the amount of secreted urea in the collected media was determined using a Urea colorimetric assay (BioAssay Systems). For viability assessment, organoids were removed immediately after the final media collection time point (day 14) for staining by LIVE/DEAD viability/cytotoxicity kits (Life Technologies). Staining consisted of incubation in 2 uM calcein AM (stains live cells green) and 4 uM EthD-1 (stains dead cells red) in a 1:1 PBS:HCM solution. Following staining, organoids were washed in PBS, fixed in 4% PFA, transferred to PBS, and imaged using macro-confocal microscopy (Leica TCS LSI). Additionally, media samples were analyzed for presence of lactate dehydrogenase (LDH), an enzyme that is released from cells after toxicity causes cell membrane rupture, using a Lactate Dehydrogenase Assay Kit (Abcam), and for α-GST, a hepatocyte-specific enzyme also released from cells after exposure to toxicity, using an α-GST Assay Kit (Oxford Biomedical Research).

[5] = test system: liver constructs (bioprinted liver organoids); assay: On-chip liver construct urea secretion (colorimetric assay); assay type: cell-based, human
Protocol: as §1
as §2, with “Following staining, organoids were washed in PBS, fixed in 4% PFA, transferred to PBS, and imaged using macro-confocal microscopy (Leica TCS LSI).” left out

[6] = test system: liver constructs (bioprinted liver organoids); assay: On-chip liver construct lactate dehydrogenase release into media; assay type: cell-based, human; settings: for LDH concentration in the media: day 10
[7] = test system: liver constructs (bioprinted liver organoids); assay: On-chip liver construct viability by LIVE/DEAD staining after APAP / NAC; assay type: cell-based; settings: day 14
Protocol: as §1
as §2, with “Following staining, organoids were washed in PBS, fixed in 4% PFA, transferred to PBS, and imaged using macro-confocal microscopy (Leica TCS LSI).” left out

[8] = test system: liver constructs (bioprinted liver organoids); assay: On-chip liver construct alpha-GST release into media; assay type: cell-based, human; settings: 10 mM APAP + 20 mM NAC
Protocol: Liver construct synthetic functionality, response to acetaminophen insult, and intervention with N-acetyl-L-cysteine. To assess the response of the liver organoid system to toxic drug insult, acetaminophen was employed. Liver organoids were cultured in microreactors as described before for 14 days. Media samples were collected on days 3, 6, 10, and 14. After media collection on day 6, 1 set of organoids continued with normal media, 1 set of organoids were treated with 1 mM APAP, and 1 set of organoids were treated with 10 mM APAP. […]
For assessment of liver organoid albumin and urea secretion under baseline conditions as well as during exposure to APAP, collected media aliquots were analyzed using a Human Albumin ELISA assay (Alpha Diagnostic International) and the amount of secreted urea in the collected media was determined using a Urea colorimetric assay (BioAssay Systems). […] Additionally, media samples were analyzed for presence of lactate dehydrogenase (LDH), an enzyme that is released from cells after toxicity causes cell membrane rupture, using a Lactate Dehydrogenase Assay Kit (Abcam), and for α-GST, a hepatocyte-specific enzyme also released from cells after exposure to toxicity, using an α-GST Assay Kit (Oxford Biomedical Research).

[9] = test system: liver organoids; assay: Phospholipid accumulation, HCS LipidTox Phospholipidosis Detection Stain; assay type: cell-based, human; settings: 48 hour treatment, even with lower concentrations
Protocol: Accumulation of phospholipids within the organoids was imaged using the HCS LipidTox Phospholipidosis Detection Stain (Invitrogen). LipidTox reagent was added to medium at the same time as the troglitazone at a ratio of 1:500. Following 48 hour drug treatment, organoids were fixed in 4% paraformaldehyde (Sigma Aldrich), washed in PBS, and then transferred to a depression glass slide (Erie Scientific) for imaging using TCS LSI macro confocal with 5× macro objective (Leica).

[10] = test system: liver organoids; assay: Troglitazone toxicity, organoid viability by CellTiter-Glo ATP assay; assay type: cell-based, human; settings: liver organoids treated for 48 hours
Protocol: Organoid viability assays. Organoid viability was assessed by ATP production as a measure of metabolic activity as detailed in the following white paper^1. CellTiter-Glo assay (Promega) was used to measure ATP by transferring one organoid/well to a black, opaque 96-well plate (Corning). Blanks were included using HCM medium (Lonza) at 80 μl/well. 80 μl of prepared CellTiter-Glo buffer was added per well and plate was placed on shaker for 5 minutes to lyse cells, then further incubated for 15 minutes protected from light. Plate was read using plate reader (SpectraMax M5, Molecular Devices) with an integration time of 0.5 see/well. Sample time points were compared via two-sample unequal variance t-test. Live/dead stain was also used to assess viability. Organoids were washed in PBS and then stained with live/dead viability/cytotoxicity kit (Life Technologies): 2 μL/mL ethidium homodimer-1 and 0.5 μL/mL calcein AM (diluted in PBS) for 45 minutes at room temperature, protected from light. Organoids were transferred to a depression glass slide (Erie Scientific) and then imaged using TCS LSI macro confocal microscope with 5× macro objective (Leica).
Troglitazone toxicity. […] Organoid viability was measured using the CellTiter-Glo assay (Promega) as recorded as previously described.

[11] = test system: bioprinted cardiac tissue constructs (rat neonatal cardiomyocytes); assay: Bioprinted rat cardiac tissue constructs, response to cardiac drugs; assay type: cell-based
Excerpt: In this study, 3D bioprinting was applied to fabricate functional and contractile cardiac tissue constructs. Rat neonatal heart tissues were obtained to isolate cardiomyocytes, and the cells were suspended in a fibrin-based hydrogel bioink. Cell-laden hydrogel was printed through a 300-micron nozzle by pneumatic pressure. […] Moreover, tissue development of the printed cardiac tissue could accelerate by Notch signal blockade.

In the case of `CC(C)NCC(O)COc1cccc2ccccc12` (stereo not drawn) [propranolol], the “block of beta-adrenergic effects of 0.5 μM epinephrine” value ([1]; 0.1 μM propranolol, Group 1, no liver organoids) is reported as “successfully blocked”, the “prevention of epinephrine-induced increase in beating rate” value ([2]; 0, 0.5, 5, 20 uM propranolol for 20 minutes, then 5 uM epinephrine) is reported as “more effectively prevented epinephrine-induced increases in beating rates” and the “decrease in beating rate” value ([3]; 0.1 μM, cardiac-only system) is reported as about 10%. The “change in beating rate” value ([3]; 0.1 μM, in the presence of the liver construct) was “no decrease in beating rate”.
In the case of `CC(=O)Nc1ccc(O)cc1` [APAP, acetaminophen], the “albumin levels vs 0 mM control” value ([4]; 1 mM APAP) is reported as “significantly decreased”, the “albumin levels vs 0 mM control” value ([4]; 10 mM APAP) is reported as “significantly decreased” and the albumin levels ([4]; 10 mM APAP, day 14) is reported as “nearly immeasurable”. The urea levels ([5]; 1 mM and 10 mM APAP, after administration) was “drop in a dose dependent manner”, the “LDH concentration in the media” value ([6]; 10 mM APAP) was “clear increase in LDH concentration” and the LDH levels ([6]; 10 mM APAP, day 14) was “drop down to baseline”. The “viability (ratio of live to dead cells, LIVE/DEAD)” value ([7]; 1 mM APAP) was 30-50% and the “viability (LIVE/DEAD)” value ([7]; 10 mM APAP) was “few viable cells”.
For `CC(=O)N[C@@H](CS)C(=O)O` [NAC, N-acetyl-L-cysteine], the “albumin levels vs 10 mM APAP group” value ([4]; 10 mM APAP + 20 mM NAC) was “significantly greater than those of the 10 mM APAP treated group”, the “urea levels vs 10 mM APAP” value ([5]; 10 mM APAP + 20 mM NAC) was “significantly greater than the 10 mM APAP urea levels” and the “urea levels vs control organoids” value ([5]; 10 mM APAP + 20 mM NAC) was “not significantly different than the control organoids”. The “LDH concentration in the media” value ([6]; 10 mM APAP + 20 mM NAC) was “almost identical to the control group”, the “viability (LIVE/DEAD), rescue from APAP” value ([7]; 10 mM APAP + 20 mM NAC) was “reduced the level of morbidity” and the alpha-GST in media ([8]; day 10) was “about 6 ng/mL”. It also gave an alpha-GST in media ([8]; day 14) of about 5 ng/mL.
In the case of `Cc1c(C)c2c(c(C)c1O)CCC(C)(COc1ccc(CC3SC(=O)NC3=O)cc1)O2` (stereo not drawn) [troglitazone], the phospholipid accumulation [9] is reported as “Considerable phospholipid accumulation” and the “viability (ATP quantification), dose-response” value [10] is reported as “decrease in viability as concentration of drug is increased”.
In the case of `CC(C)NCC(O)c1ccc(O)c(O)c1` (stereo not drawn) [Isoproterenol], the organoid beating rate ([2]; 0.1 mM) is reported as “increased organoid beating rate”.
`C[N+](C)(C)CCOC(N)=O` [carbachol] was tested, and the “physiological responses (beating frequency and contraction forces)” value [11] was “showed physiological responses”.
`C=C[C@H]1C[N@@]2CC[C@H]1C[C@@H]2[C@@H](O)c1ccnc2ccc(OC)cc12` [quinidine] was tested, and the organoid beating rate ([2]; 1 μM) was “slowed organoid beating rate”.
In the case of `CNC[C@H](O)c1ccc(O)c(O)c1` [epinephrine], the “restoration of the epinephrine-induced increase in beat rate” value ([1]; 0.5 μM epinephrine after 0.1 μM propranolol, 2D hepatocyte culture instead of liver construct) is reported as “failed achieve any restoration”, the “increase in BPM” value ([1]; 0.5 μM epinephrine after 0.1 μM propranolol, Group 2, liver component added) is reported as 1.25 fold and the “response relative to control epinephrine-only response” value ([1]; 0.5 μM epinephrine after 0.1 μM propranolol, Group 2 with 3D liver organoids) is reported as “approximately 50%”. The “increase in cardiac BPM” value ([1]; 0.5 μM epinephrine, controls with no propranolol) was 1.5 fold, the “concentration at which beating rate plateau is reached” value [2] was at least 5 µM and the “organoid beating rate, dose response” value ([2]; 0, 0.1, 0.5, 5 and 50 uM) was “increased in a dose-dependent manner”. The “increase in beating rate” value ([3]; cardiac-only system) was “approximately 40%”, the “increase in beating rate” value ([3]; with liver component) was about 30% and the “physiological responses (beating frequency and contraction forces)” value [11] was “showed physiological responses”.
